What follows are molecules tested on HCV genotype 1a replicon cell line (assay: HCV Genotype 1a Replicon Assay). Details: Hepatitis C virus, Huh7.5 cell background, NS3-specific protease activity in lysates, 48 or 72 hours, read-out: Genotype 1a (pEC50 class) (converted).
Type: cell-based, hepatitis C virus
Outline: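 Huh7.5-based subgenomic genotype 1a replicon cells, plated without G418, exposed to compound dose-responses (0.5% DMSO final) for 48 or 72 h at 37 °C. Lysate NS3/4a protease activity read with 15 μM FRET substrate, 20 min at 37 °C (Ex 340/Em 509 nm); EC50 from 4-parameter fit.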

SMILES | EC50 [nM]
COC(=O)N[C@H](C(=O)N1C[C@@H](OC)C[C@H]1c1nc(-c2ccc(-c3ccc(NC(=O)N4CCN(C5CCN(C(=O)C6CC6)CC5)CC4)cc3OC(F)(F)F)cc2)c[nH]1)C(C)C [Example 5-3] | 0.1 to 1
COC(=O)N[C@H](C(=O)N1C[C@@H](OC)C[C@H]1c1nc(-c2ccc(-c3ccc(NC(=O)N4CCN(C5CCN(C(=O)C6CCCC6(C)C)CC5)CC4)cc3OC(F)(F)F)cc2)c[nH]1)C(C)C (stereo partly shown) [Example 5-4] | 0.1 to 1
COC(=O)N[C@H](C(=O)N1C[C@@H](OC)C[C@H]1c1nc(-c2ccc(-c3ccc(NC(=O)N4CCN(C5CCN(C(=O)C(C)(C)CO)CC5)CC4)cc3OC(F)(F)F)cc2)c[nH]1)C(C)C [Example 5-5] | 0.1 to 1
COC(=O)N[C@H](C(=O)N1C[C@@H](C)C[C@H]1c1nc(-c2ccc(-c3cc(Cl)c(NC(=O)N4CCN(C5CCN(C(=O)C6CC6(F)F)CC5)CC4)cc3OC(F)(F)F)cc2)c[nH]1)C(C)C (stereo partly shown) [Example 5] | 0.1 to 1
COC(=O)N[C@H](C(=O)N1C[C@@H](C)C[C@H]1c1nc2c(ccc3cc(-c4ccc(NC(=O)N5CCN(C6CCN(C(=O)OC(C)(C)C)CC6)CC5)cc4OC(F)(F)F)ccc32)[nH]1)C(C)C [Example 6-2] | < 0.1
COC(=O)N[C@H](C(=O)N1C[C@@H](C)C[C@H]1c1nc2c(ccc3cc(-c4ccc(NC(=O)N5CCN(C6CCN(C(=O)C7CCC7(C)C)CC6)CC5)cc4OC(F)(F)F)ccc32)[nH]1)C(C)C (stereo partly shown) [Example 6-3] | < 0.1
COC(=O)N[C@H](C(=O)N1C[C@@H](C)C[C@H]1c1nc(-c2ccc(-c3cc(Cl)c(NC(=O)N4CCN(C5CCN(C(=O)C6CCC6)CC5)CC4)cc3OC(F)(F)F)cc2)c[nH]1)C(C)C [Example 6] | 0.1 to 1
COC(=O)N[C@H](C(=O)N1C[C@@H](C)C[C@H]1c1nc2c(ccc3cc(-c4ccc(NC(=O)N5CCN(C6CCN(C(=O)OC(C)(C)C)CC6)CC5)cc4OC(F)(F)F)ccc32)[nH]1)C1CCOCC1 [Example 7-1] | < 0.1
COC(=O)N[C@H](C(=O)N1C[C@@H](C)C[C@H]1c1nc2c(ccc3cc(-c4ccc(NC(=O)N5CCN(C6CCN(C(=O)C(C)(C)C)CC6)CC5)cc4OC(F)(F)F)ccc32)[nH]1)C1CCOCC1 [Example 7-2] | < 0.1
COC(=O)N[C@H](C(=O)N1C[C@@H](C)C[C@H]1c1nc2c(ccc3cc(-c4ccc(NC(=O)N5CCN(C6CCN(C(=O)C(C)(C)CO)CC6)CC5)cc4OC(F)(F)F)ccc32)[nH]1)C1CCOCC1 [Example 7-3] | 0.1 to 1
COC(=O)N[C@H](C(=O)N1C[C@@H](C)C[C@H]1c1nc2c(ccc3cc(-c4ccc(NC(=O)N5CCN(C6CCN(C(=O)C7CC7)CC6)CC5)cc4OC(F)(F)F)ccc32)[nH]1)C1CCOCC1 [Example 7-4] | < 0.1
COC(=O)N[C@H](C(=O)N1C[C@@H](C)C[C@H]1c1nc(-c2ccc(-c3ccc(NC(=O)N4CCN(C5CCN(C(=O)C(C)(C)C)CC5)CC4)cc3OC(F)(F)F)cc2)c(F)[nH]1)C(C)C [Example 8, [(S)-1-((2S,4S)-2-{4-[4′-({4-[1-(2,2-Dimethyl-propionyl)-piperidin-4-yl]-piperazine-1-carbonyl}-amino)-2′-trifluoromethoxy-biphenyl-4-yl]-5-fluoro-1H-imidazol-2-yl}-4-methyl-pyrrolidine-1-carbonyl)-2-methyl-propyl]-carbamic acid methyl ester] | < 0.1
COC(=O)N[C@H](C(=O)N1CCC[C@H]1c1nc(-c2ccc(-c3ccc(NC(=O)N4CC5CCC(C4)N5C4CCN(C(=O)C5CC5)CC4)cc3OC(F)(F)F)cc2)c[nH]1)C(C)C [Example 8-1] | 1 to 10
COC(=O)N[C@H](C(=O)N1CCC[C@H]1c1nc(-c2ccc(-c3ccc(NC(=O)N4CC5CCC(C4)N5C4CCN(C(=O)OC(C)(C)C)CC4)cc3OC(F)(F)F)cc2)c[nH]1)C(C)C [Example 8-2] | 0.1 to 1
COC(=O)N[C@H](C(=O)N1[C@@H](C)CC[C@H]1c1nc(-c2ccc(-c3ccc(NC(=O)N4CCN(C5CCN(C(=O)C(C)(C)C)CC5)CC4)cc3OC(F)(F)F)cc2)c[nH]1)C(C)C [Example 8-3] | 0.1 to 1
COC(=O)N[C@H](C(=O)N1[C@@H](C)CC[C@H]1c1nc(-c2ccc(-c3ccc(NC(=O)N4CCN(C5CCN(C(=O)C6CC6)CC5)CC4)cc3OC(F)(F)F)cc2)c[nH]1)C(C)C [Example 8-4] | 0.1 to 1
COC(=O)N[C@H](C(=O)N1[C@@H](C)CC[C@H]1c1nc(-c2ccc(-c3ccc(NC(=O)N4CCN(C5CCN(C(=O)[C@H]6CC6(C)C)CC5)CC4)cc3OC(F)(F)F)cc2)c[nH]1)C(C)C [Example 8-5] | 0.1 to 1
COC(=O)N[C@H](C(=O)N1C[C@@H](C)C[C@H]1c1nc(-c2ccc(-c3ccc(NC(=O)N4CCN(C5CCN(C(=O)C6CC6)CC5)CC4)cc3OC(F)(F)F)cc2)c(F)[nH]1)C(C)C [Example 9] | < 0.1
COC(=O)N[C@H](C(=O)N1C[C@@H](C)C[C@H]1c1nc(-c2ccc(-c3cc(Cl)c(NC(=O)N4CCC(N5CCN(C(=O)C(C)(C)C)C[C@@H]5C)CC4)cc3OC(F)(F)F)cc2)c[nH]1)C(C)C [Example 12, [(S)-1-((2S,4S)-2-{4-[5′-Chloro-4′-({4-[(S)-4-(2,2-dimethyl-propionyl)-2-methyl-piperazin-1-yl]-piperidine-1-carbonyl}-amino)-2′-trifluoromethoxy-biphenyl-4-yl]-1H-imidazol-2-yl}-4-methyl-pyrrolidine-1-carbonyl)-2-methyl-propyl]-carbamic acid methyl ester] | 0.1 to 1
COC(=O)N[C@H](C(=O)N1C[C@@H](OC)C[C@H]1c1nc(-c2ccc(-c3ccc(NC(=O)N4CCC(N5CCN(C(=O)C6CCC6(C)C)CC5)CC4)cc3OC(F)(F)F)cc2)c[nH]1)C(C)C (stereo partly drawn) [Example 14, [(S)-1-((2S,4S)-2-{4-[4′-({4-[4-(2,2-Dimethyl-cyclobutanecarbonyl)-piperazin-1-yl]-piperidine-1-carbonyl}-amino)-2′-trifluoromethoxy-biphenyl-4-yl]-1H-imidazol-2-yl}-4-methoxy-pyrrolidine-1-carbonyl)-2-methyl-propyl]-carbamic acid methyl ester] | 0.1 to 1
COC(=O)N[C@H](C(=O)N1C[C@@H](C)C[C@H]1c1nc2c(ccc3cc(-c4ccc(NC(=O)N5CCN(C6CCN(C(=O)C(C)(C)C)CC6)CC5)cc4OC(F)(F)F)ccc32)[nH]1)C(C)C [Example 15, [(S)-1-((2S,4S)-2-{7-[4-({4-[1-(2,2-Dimethyl-propionyl)-piperidin-4-yl]-piperazine-1-carbonyl}-amino)-2-trifluoromethoxy-phenyl]-3H-naphtho[1,2-d]imidazol-2-yl}-4-methyl-pyrrolidine-1-carbonyl)-2-methyl-propyl]-carbamic acid methyl ester] | < 0.1

Same assay, conditions: Huh7.5 cell background, NS3-specific protease activity in lysates, 48 or 72 hours

SMILES | Genotype 1a (pEC50 class)
COC(=O)N[C@H](C(=O)N1CCC[C@H]1c1nc(-c2ccc(-c3ccc(NC(=O)N4CCN(C5CCN(C(=O)OC(C)(C)C)CC5)CC4)cc3)cc2)c[nH]1)C(C)C [Example 1-1] | C (C represents pEC50 between and 9 and about 10, (EC50 between 1 nM and 0.1 nM))
COC(=O)N[C@H](C(=O)N1CCC[C@H]1c1nc(-c2ccc(-c3ccc(NC(=O)N4CCN(C5CCN(C(=O)C6CC6)CC5)CC4)cc3)cc2)c[nH]1)C(C)C [Example 1-8] | C (C represents pEC50 between and 9 and about 10, (EC50 between 1 nM and 0.1 nM))
COC(=O)N[C@H](C(=O)N1CCC[C@H]1c1nc(-c2ccc(-c3ccc(NC(=O)N4CCN(C5CCN(C(=O)[C@H]6CC6(C)C)CC5)CC4)cc3OC(F)(F)F)cc2)c[nH]1)C(C)C [Example 1-12] | C (C represents pEC50 between and 9 and about 10, (EC50 between 1 nM and 0.1 nM))
COC(=O)N[C@H](C(=O)N1CCC[C@H]1c1nc(-c2ccc(-c3ccc(NC(=O)N4CCN(C5CCN(C(=O)C6CC6)CC5)CC4)cc3OC(F)(F)F)cc2)c[nH]1)C(C)C [Example 1-13] | C (C represents pEC50 between and 9 and about 10, (EC50 between 1 nM and 0.1 nM))
COC(=O)N[C@H](C(=O)N1C[C@@H](C)C[C@H]1c1nc2c(ccc3cc(-c4ccc(NC(=O)N5CCN(C6CCN(C(=O)[C@H]7CC7(C)C)CC6)CC5)cc4OC(F)(F)F)ccc32)[nH]1)C1CCOCC1 [Example 7-5] | D (D represents pEC50>10 (EC50<0.1 nM))
COC(=O)N[C@H](C(=O)N1C[C@@H](C)C[C@H]1c1nc(-c2ccc(-c3ccc(NC(=O)N4CCN(C5CCN(C(=O)[C@H]6CC6(C)C)CC5)CC4)cc3OC(F)(F)F)cc2)c(F)[nH]1)C(C)C [Example 10] | D (D represents pEC50>10 (EC50<0.1 nM))

Each molecule was assayed on HCV genotype 1b replicon cell line (assay: HCV Genotype 1b Replicon Assay). Details: Huh7 cell background, Renilla luciferase readout, 48 hours.
Type: cell-based, hepatitis C virus
Excerpt: Assay 1: HCV Genotype 1b Replicon Assay
The HCV genotype 1b replicon cell line was obtained from Apath LLC (Brooklyn, N.Y.) (APC144; Huh7 cell background). This subgenomic replicon contains the N-terminus of the HCV core protein fused to the neomycin-resistance selectable marker. The EMCV IRES lies downstream and drives expression of humanized Renilla luciferase fused to the non-structural proteins NS3-NS5B. This cell line was used to determine compound potency using the luciferase activity readout as a measurement of compound inhibition of replicon levels.
Cells were grown at 37° C. in a 5% CO2 humidified incubator in DMEM (Invitrogen) with 10% FBS (HyClone), 1×NEAA (Invitrogen), 1× Pen-Strep (Invitrogen), and 500 μg/mL G418 (Invitrogen). On day 1 of the assay, cells were plated at 10,000 cells/well in white 96-well tissue culture plates (Costar) in 200 μL media lacking G418. Four hours later, once the cells have adhered, the media was removed and replaced with media (no G418) containing dose-responses of test compounds. Compounds were initially diluted in DMSO and then diluted another 200× in media to bring the final DMSO concentration down to 0.5%. The cells were incubated with test compounds for 48 hours. At the end of the incubation period, media and compound were removed from the plates and the luciferase activity was determined using Promega Renilla-Glo reagents.
To analyze the data, the luciferase activity was plotted vs. the compound concentration, and EC50 values were determined from a 4-parameter robust fit model with the GraphPad Prism software package (GraphPad Software, Inc., San Diego, Calif.). Results are expressed as the negative decadic logarithm of the EC50 value, pEC50.
Test compounds having a higher pEC50 value in this assay show greater inhibition of HCV genotype 1b replication.

SMILES | Genotype 1b (pEC50 class)
COC(=O)N[C@H](C(=O)N1CCC[C@H]1c1nc(-c2ccc(-c3ccc(NC(=O)N4CCN(C5CCN(C(=O)OC(C)(C)C)CC5)CC4)cc3)cc2)c[nH]1)C(C)C [Example 1-1] | D (D represents pEC50>10 (EC50<0.1 nM))
COC(=O)N[C@H](C(=O)N1CCC[C@H]1c1nc(-c2ccc(-c3ccc(NC(=O)N4CCN(C5CCN(C(=O)C6CC6)CC5)CC4)cc3)cc2)c[nH]1)C(C)C [Example 1-8] | D (D represents pEC50>10 (EC50<0.1 nM))
COC(=O)N[C@H](C(=O)N1CCC[C@H]1c1nc(-c2ccc(-c3ccc(NC(=O)N4CCN(C5CCN(C(=O)[C@H]6CC6(C)C)CC5)CC4)cc3OC(F)(F)F)cc2)c[nH]1)C(C)C [Example 1-12] | D (D represents pEC50>10 (EC50<0.1 nM))
COC(=O)N[C@H](C(=O)N1CCC[C@H]1c1nc(-c2ccc(-c3ccc(NC(=O)N4CCN(C5CCN(C(=O)C6CC6)CC5)CC4)cc3OC(F)(F)F)cc2)c[nH]1)C(C)C [Example 1-13] | D (D represents pEC50>10 (EC50<0.1 nM))
